Test results reported in US12673918B2, “Small molecule RPN13 inhibitors with antitumor properties” (The Johns Hopkins University, priority 2019, dated 2026).
pIC50: −log10 of the molar value. Where two headings read alike, the source gives them in different places.

How the values were obtained:
PEO1 = assay: cells; settings: Homo sapiens, PEO1, read-out: cytotoxicity IC50 PEO1
Experimental: (§1) Cell lines and cytotoxicity assays: All cell lines were obtained from the American Type Culture Collection (ATCC) and cultured in the specified medium supplemented with 10% fetal bovine serum, 100 IU/mL penicillin, and 100 μg/mL streptomycin at 37° C. in a humidified 5% CO2/95% air incubator. […] To assess drug cytotoxicity, cells were seeded at 2,500 cells/well (10,000 cells/well for MM lines) in 100 μL medium in 96-well plate and after 24 treated with compounds for 72 h, incubated according to the manufacturer's protocol with the Thiazolyl Blue Tetrazolium Bromide (Sigma, M2128) and A570 measured using a Benchmark Plus microplate spectrophotometer (BIO-RAD). IC50 data was analyzed by Graphpad Prism software. In the chirality studies the cells were treated with compounds for 48 h, and the cells were incubated and measured via the preceeding protocols.

ES2 = assay: MTT cytotoxicity assay, ES2
PEO14 = assay: cells; settings: read-out: cytotoxicity IC50 PEO14
Experimental: as §1

HCT116 = assay: MTT cytotoxicity assay, HCT116
SKOV3 = assay: MTT cytotoxicity assay, SKOV3; settings: Homo sapiens
Experimental: (§2) Cell lines and cytotoxicity assays: All cell lines were obtained from the American Type Culture Collection (ATCC) and cultured in the specified medium supplemented with 10% fetal bovine serum, 100 IU/mL penicillin, and 100 μg/mL streptomycin at 37° C. in a humidified 5% CO2/95% air incubator. […] To assess drug cytotoxicity, cells were seeded at 2,500 cells/well (10,000 cells/well for MM lines) in 100 μL medium in 96-well plate and after 24 treated with compounds for 72 h, incubated according to the manufacturer's protocol with the Thiazolyl Blue Tetrazolium Bromide (Sigma, M2128) and A570 measured using a Benchmark Plus microplate spectrophotometer (BIO-RAD). IC50 data was analyzed by Graphpad Prism software.

intracellular GSH = assay: Total GSH assay, ES2 cells; format: cell-based, human; settings: ES2, 12 hr
Text: FIG. 16B illustrates ES2 cells treated with compounds for 12 hr and the total GSH level assayed.
Recent insights indicate that ER stress and oxidative stress are highly interrelated biological process which regulate a wide range of signaling pathways in cells. […] Oxidative stress is characterized by an imbalance between the production of ROS and the availability of free GSH. Generation of ROS is considered an early event in the process of apoptotic cell death (68). To counteract ROS, cells upregulate antioxidant pathways including intracellular glutathione (GSH).
Luciferase and GSH assays: Sub-confluent cultures of cells were transfected with 4Ub-FL or FL plasmid using Lipofectamine 2000 reagent (Life Technologies). Cells were seeded at 10,000 cells/well in 96-wells plate 48 hr post transfection and incubated with compounds or vehicle (DMSO) at the doses and times indicated. Luciferase activity in cell lysate was determined with a luciferase assay kit (Promega) according to the manufacturer's instructions. Bioluminescence was measured by using a Glomax Multidetection system (Promega). Glutathione was assayed using the Promega GSH assay kit (V6611).

HCC1395 = assay: MTT cytotoxicity assay, HCC1395; settings: Homo sapiens, HCC1395, read-out: cytotoxicity IC50 HCC1395
TC1-Lu = assay: MTT cytotoxicity assay, TC1-Lu; settings: read-out: cytotoxicity IC50 TC1-Lu
Experimental: as §1

PEA1 = assay: cells; settings: read-out: cytotoxicity IC50 PEA1
Experimental: as §1

DLD1 = assay: MTT cytotoxicity assay, DLD1; settings: Homo sapiens, DLD-1, read-out: cytotoxicity IC50 DLD1
Experimental: as §1

FaDu = assay: cells; settings: Homo sapiens
PEA2 = assay: cells; settings: read-out: cytotoxicity IC50 PEA2
Experimental: as §1

MDA-MB-468 = assay: cells; settings: Homo sapiens, MDA-MB-468, read-out: cytotoxicity IC50 MDA-MB-468
Experimental: as §1

in vivo = settings: female, CD1, mouse, ip
Experimental: Pilot safety studies were performed in CD1 mice (n=3/dose group of healthy female mice aged 6-8 weeks) with increasing single doses delivered i.p. and the NOAEL (no-observed-adverse-effect level) was selected for further animal studies. […] Bortezomib was dissolved in a minimal amount of DMSO and further diluted with saline before injection in a dose finding study. […] To measure on-target inhibition of proteasome activity in mice, a leg muscle of CD-1 mice was transduced with the 4UbFL reporter construct. […] Briefly, mouse leg muscle was electroporated with 4UbFL plasmid and basal bioluminescence was measured after 24 hr using IVIS200 imager after injecting luciferin substrate. Mice were randomized (n=5/group) and treated with compounds in PEG400: Cremophor: Tween40 combination or vehicle alone as shown in Table 5 with one dose delivered by intraperitoneal injection. The mice were again imaged at 4 h, 24 h, 48 h post treatment.

TOV21G = assay: MTT cytotoxicity assay, TOV21G
DLD-Seckle = assay: MTT cytotoxicity assay, DLD-Seckle; settings: read-out: cytotoxicity IC50 DLD-Seckle
Experimental: as §1

SUM149 = assay: cells; settings: SUM149, read-out: cytotoxicity IC50 SUM149
Experimental: as §1

CaSki = assay: MTT cytotoxicity assay, CaSki
A2780 = assay: MTT cytotoxicity assay, A2780
HCT116 ARID1A^-/- = assay: MTT cytotoxicity assay, HCT116 ARID1A knockout; format: cell-based, human; settings: for pIC50: Homo sapiens, read-out: IC50 HCT116 ARID1A^-/-
Text: Loss of ARID1A function is a common driver of ovarian and some other cancer types, and it confers vulnerability to inhibition of GSH (36).

ID8-vegf = assay: MTT cytotoxicity assay, ID8-vegf; settings: read-out: cytotoxicity IC50 ID8-vegf, Tables 3A/4B/4C
HeLa = assay: MTT cytotoxicity assay, HeLa; settings: read-out: cytotoxicity IC50 HeLa, Tables 3A/4B/4C
HCC1806 = assay: MTT cytotoxicity assay, HCC1806; format: cell-based; settings: Homo sapiens, read-out: IC50 HCC1806
Experimental: as §2

MM.1S = assay: MTT cytotoxicity assay, MM.1S; format: cell-based; settings: Homo sapiens, MM1.S, read-out: IC50 MM.1S
Experimental: (§3) The cytotoxic efficacy of selected compounds was assessed against multiple myeloma (MM) cell lines, as this is a validated clinical target for the licensed proteasome inhibitors.
as §2

OVCAR5 = assay: MTT cytotoxicity assay, OVCAR5; format: cell-based; settings: Homo sapiens, read-out: IC50 OVCAR5
Experimental: as §2

RPMI8226-V10R = assay: MTT cytotoxicity assay, RPMI8226-V10R; format: cell-based; settings: read-out: IC50 RPMI8226-V10R
Experimental: as §3, §2

ME180 = assay: MTT cytotoxicity assay, ME180; format: cell-based; settings: Homo sapiens, read-out: IC50 ME180
Experimental: as §2

[1] = read-out: cytotoxicity IC50 ES2, Tables 3A/4B/4C, MTT assay
[2] = read-out: cytotoxicity IC50 HCT116, Tables 3A/4B/4C, MTT assay
[3] = SK-OV-3, read-out: cytotoxicity IC50 SKOV3
[4] = read-out: cytotoxicity IC50 FaDu
[5] = read-out: cytotoxicity IC50 TOV21G, Tables 3A/4B/4C, MTT assay
[6] = read-out: cytotoxicity IC50 CasKi, Tables 3A/4B/4C, MTT assay
[7] = read-out: IC50 HCT116, Table 3, MTT, 48 hr, Colon
[8] = read-out: cytotoxicity IC50 A2780, Tables 3A/4B/4C, MTT assay
[9] = HCT-116, Table 3, MTT, 48 hr, Colon
[10] = read-out: IC50 TOV21G, Table 3, MTT, 48 hr, Ovarian

| Structure (SMILES) | pIC50 (PEO1) | pIC50 (ES2; [1]) | pIC50 (PEO14) | pIC50 (HCT116; [2]) | pIC50 (SKOV3; [3]) | intracellular GSH concentrations (intracellular GSH) | pIC50 (HCC1395) | pIC50 (TC1-Lu) | pIC50 (PEA1) | pIC50 (DLD1) | pIC50 (FaDu; [4]) | pIC50 (PEA2) | pIC50 (MDA-MB-468) | NOAEL (in vivo) | pIC50 (TOV21G; [5]) | pIC50 (SUM149) | pIC50 (CaSki; [6]) | pIC50 (A2780; [8]) | pIC50 (ID8-vegf) | pIC50 (HeLa) | other results |
| --- | --- | --- | --- | --- | --- | --- | --- | --- | --- | --- | --- | --- | --- | --- | --- | --- | --- | --- | --- | --- | --- |
| C[C@H]1/C(=C\c2ccc([N+](=O)[O-])cc2)C(=O)/C(=C/c2ccc([N+](=O)[O-])cc2)CN1C(=O)[C@@H](N)Cc1ccccc1 | 7.51 | 7.40 | 7.04 | 7.10 | 7.40 | reduced intracellular GSH concentrations | 7.12 | 6.94 | 7.15 | 6.79 | 7.11 | 7.19 | 7.12 | 30 mg/kg | 8.44 | 7.70 | 7.57 |  |  |  | pIC50 (DLD-Seckle): 7.26 |
| CC(C)C[C@H](NC(=O)[C@H](Cc1ccccc1)NC(=O)c1cnccn1)B(O)O [Bortezomib, bortezomib, reference compound] | 7.51 |  | 7.52 |  | 8.82 | reduced intracellular GSH concentrations |  | 8.35 | 7.52 | 8.32 |  | 7.52 |  | 0.75 mg/kg |  | 7.52 |  | 8.52 | 8.82 | 8.52 | pIC50 (HCT116; [7]): 8.49; pIC50 (HCT116 ARID1A^-/-; [9]): 8.55 |
| N[C@@H](Cc1ccccc1)C(=O)N1C/C(=C\c2ccc([N+](=O)[O-])cc2)C(=O)/C(=C/c2ccc([N+](=O)[O-])cc2)C1 [RA183, reference compound] |  | 7.12 |  | 6.71 | 7.27 |  |  |  |  |  | 6.82 |  | 6.60 |  | 7.28 |  | 6.51 | 6.79 | 6.70 | 6.95 | pIC50 (ES2; read-out: IC50 ES2, Table 3, MTT, 48 hr, Ovarian): 7.12; pIC50 (HCT116; [7]): 6.71; pIC50 (HCC1806; HCC1806, 48 h): 7.36; pIC50 (SKOV3; SK-OV-3, 48 h, read-out: IC50 SKOV3): 7.27; pIC50 (A2780; read-out: IC50 A2780, Table 3, MTT, 48 hr, Ovarian): 6.79; pIC50 (MM.1S; 48 h): 7.34; pIC50 (HCT116 ARID1A^-/-; HCT-116, 48 h): 6.81; pIC50 (OVCAR5; OVCAR-5, 48 h): 7.25; pIC50 (RPMI8226-V10R; 48 h): 6.86; pIC50 (ME180; ME-180, 48 h): 6.53; pIC50 (TOV21G; [10]): 7.36; pIC50 (CaSki; read-out: IC50 CaSki, Table 3, MTT, 48 hr, Cervical (HPV +ve)): 6.51 |
| N[C@@H](Cc1ccccc1)C(=O)N1C/C(=C\c2ccc(Cl)c(Cl)c2)C(=O)/C(=C/c2ccc(Cl)c(Cl)c2)C1 [RA190, reference compound] | 6.63 | 6.94 | 6.43 | 6.62 | 7.14 |  | 9.46 |  | 6.41 |  | 6.52 | 6.40 | 6.52 |  | 6.83 | 6.63 | 6.49 | 6.86 | 6.68 | 7.07 | pIC50 (HCC1806; HCC1806, Table 3, MTT, 48 hr, Triple Negative Breast): 7.28; pIC50 (MM.1S; Table 3, MTT, 48 hr, Multiple Myeloma): 7.14; pIC50 (HCT116 ARID1A^-/-; [9]): 6.79; pIC50 (OVCAR5; OVCAR-5, Table 3, MTT, 48 hr, Ovarian): 7.19; pIC50 (RPMI8226-V10R; Table 3, MTT, 48 hr, Multiple Myeloma, bortezomib resistant): 7.33; pIC50 (ME180; ME-180, Table 3, MTT, 48 hr, Cervical (HPV +ve)): 6.74; pIC50 (TOV21G; [10]): 7.08 |
| O=C(CCl)N[C@@H](Cc1ccccc1)C(=O)N1C/C(=C\c2ccc([N+](=O)[O-])cc2)C(=O)/C(=C/c2ccc([N+](=O)[O-])cc2)C1 [RA375] | 7.57 |  |  | 7.05 | 7.59 |  |  |  |  | 7.62 |  | 7.22 |  |  |  |  | 8.52 |  |  |  | pIC50 (ES2; read-out: IC50 ES2): 7.72; pIC50 (HCC1806; HCC1806, 48 h): 7.77; pIC50 (MM.1S; 48 h): 7.96; fold less sensitive: parental HCT116 vs isogenic ARID1A knockout (HCT116 ARID1A^-/-): 4 fold; pIC50 (HCT116 ARID1A^-/-; HCT-116, 48 h): 7.70; pIC50 (OVCAR5; OVCAR-5, 48 h): 7.92; pIC50 (FaDu; 48 h, read-out: IC50 FaDu): 6.85; pIC50 (RPMI8226-V10R; 48 h): 8.22; pIC50 (ME180; ME-180, 48 h): 7.70; pIC50 (TOV21G; read-out: IC50 TOV21G): 8.22; pIC50 (DLD-Seckle): 7.37; pIC50 (CaSki; read-out: IC50 CaSki): 7.37 |
| CC1/C(=C\c2ccc([N+](=O)[O-])cc2)C(=O)/C(=C/c2ccc([N+](=O)[O-])cc2)CN1C(=O)[C@H](Cc1ccccc1)NC(=O)CCl (some centres unmarked) [RA414] | 7.52 | 8.12 | 7.52 | 7.70 | > 7.70 | reduced intracellular GSH concentrations | > 7.82 | 7.40 | 7.52 | > 7.40 | 7.11 | 7.52 | > 7.70 | 3 mg/kg | 8.96 | > 7.70 |  | 8.46 | > 7.40 | 8.52 | pIC50 (DLD-Seckle): > 7.40 |
